Marks after values point to notes of the source that are not given here.
Columns and labels:
[1] = tested on: OXZ-induced mouse IBD model; test: OXZ-induced mouse IBD model (Example 16); type: in vivo, Balb/c mice; conditions: 500 mg/kg intragastrically once a day, 6 days
Description: 1. Animals: Balb/c mice, male (20-22 g); 10 mice per group.
(§1) (1) Normal control group (control group): 0.5 wt % sodium carboxymethyl cellulose was administered intragastrically.
(§2) (2) IBD model group (model group): 0.5 wt % sodium carboxymethyl cellulose was administered intragastrically.
(3) Positive drug sulfasalazine group (SASP group): Dosage: 500 mg/kg, prepared with 0.5 wt % sodium carboxymethyl cellulose; stored at 4° C. and administered intragastrically once a day.
Balb/c mice were adaptively fed in an SPF animal room for one week and then grouped randomly. The mice in the model group and the administration groups were constructed as an IBD mouse model with OXZ by entrusting to the Institute of Materia Medica, Chinese Academy of Medical Sciences. Then, the administration was performed for 6 consecutive days; the normal control group was not treated. The normal control group and the model group were intragastrically administered with 0.5 wt % sodium carboxymethylcellulose, once a day. SASP group and test groups 1 to 2 were administrated intragastrically according to the above experimental scheme, once a day. Animals in each group were sacrificed on day 6 of modeling, and various indicators related to colitis were tested (see the section of Experimental results).

[2] = tested on: TNBS-induced rat IBD model; test: TNBS-induced rat IBD model (Example 15); type: in vivo, SD rats
Description: (1) Normal control group (control group): 0.5 wt % sodium carboxymethyl cellulose (CMC-Na) was administered intragastrically.
as §2
(3) Positive drug sulfasalazine group (SASP group): sulfasalazine enteric-coated tablets, dosage: 600 mg/kg, prepared with 0.5% sodium carboxymethyl cellulose; administered intragastrically once a day.
3. Experimental method: After being fasted but water allowed for about 24 hours, rats in each group were anesthetized by intraperitoneal injection of 3% sodium pentobarbital solution, and a plastic tube with a diameter of 2 mm and a length of about 12 cm was gently inserted into the rat body via the anus for about 8 cm deep. The ethanol solution containing TNBS was slowly injected with the dose of TNBS 75 mg/kg and the administration volume of 3 mL/kg body weight, and then about 0.1 mL of air was injected to discharge the medicine remained in the plastic tube into intestine. After the administration, the plastic tube was slowly pulled out, the anus was pinched with hand, and the tail of the rat was lifted and kept upside down for about 30 s, so that the modeling agent can fully penetrate into the intestinal cavity of the rat. The normal control group was injected with the same amount of normal saline, Based on the body weight thereof, 75 TNBS modeled rats were randomly divided into model group, positive drug group (sulfasalazine 600 mg/kg body weight), test groups 1 to 3, 15 rats/group, and a normal control group was set up, in which 15 rats were included. On the second day after modeling, the corresponding test samples were administered intragastrically. The normal control group and the model group were administered with 0.5 wt % CMC-Na once a day for 5 consecutive days. DAI activity score was performed on days 1 and 3 of administration and 24 hours after the last administration. Intestinal mucosal damage was observed 24 hours after the last administration for CMDI scoring. The colon tissue was taken for histopathological examination.

[3] = tested on: DSS-induced IBD mouse model; test: DSS-induced IBD mouse model (Example 10); type: in vivo, C57BL/6J mice; conditions: 500 mg/kg intragastrically once a day
Description: 1. Animals: C57BL/6J mice, male (18-20 g); 10 mice per group; purchased from Beijing Huafukang Biotechnology Co., Ltd.; license number: SCXK (Beijing) 2014-0004
as §1
(2) IBC model group (model group): 0.5 wt % sodium carboxymethyl cellulose was administered intragastrically.
(3) Positive drug sulfasalazine group (SASP group): Shanghai Sinepharm Factory Co., Ltd. (batch number: 036151102); dosage: 500 mg/kg, prepared with 0.5 wt % sodium carboxymethyl cellulose, stored at 4° C., administered intragastrically once a day.
(4) Test group: the fatty acid compositions of Examples 1 to 9, dosage: 500 mg/kg, prepared with 0.5 wt % sodium carboxymethyl cellulose, stored at 4° C., administered intragastrically once a day.
For the convenience of experimental operation, two experiments were conducted. The fatty acid compositions of Examples 1 to 5 were used for the first experiment; the fatty acid compositions of Examples 6 to 9 were used for the second experiment. Both experiments were operated according to the following methods. C57BL/6J mice were adaptively fed in an SPF animal room (laboratory animal license number: SYXK (Beijing) 2014-0023) for one week, and then randomly grouped. The mice in the model group and the administration groups were constructed as an IBC mouse model with DSS (MP, CA9011-18-1, US) by entrusting to the Institute of Materia Medica, Chinese Academy of Medical Sciences. The mice in the normal control group were not treated. The normal control group (control group) and model group (model group) were administered with 0.5 wt % sodium carboxymethyl cellulose intragastrically, once a day, with an administration volume of 10 mL/kg. The SASP group and the test group were administered intragastrically according to the above experimental scheme, once a day. […] The animals in each group were sacrificed, and each evaluation indicator of colitis was tested (see the section of Experiment results), and the anti-IBD pharmacodynamic activity of each test sample was evaluated comprehensively.
The DAI scoring criteria were as follows:
The histopathology scoring criteria table was as follows: […]

IBD mouse model with DSS = test: DSS-induced IBD mouse model (Example 14); type: in vivo, C57BL/6J mice; conditions: 500 mg/kg intragastrically once a day; 6 days of DSS modeling
Description: as §1, §2
(3) Positive drug sulfasalazine group (SASP group): sulfasalazine enteric-coated tablets; dosage: 500 mg/kg, prepared with 0.5 wt % sodium carboxymethyl cellulose; stored at 4° C. and administered intragastrically once a day.
The mice in the model group and the administration groups were constructed as an IBD mouse model with DSS (MP, CA9011-18-1, US, keeping away from light) by entrusting to the Institute of Materia Medica, Chinese Academy of Medical Sciences. The mice in the normal control group were not treated. The normal control group and model group were administered with 0.5 wt % sodium carboxymethyl cellulose intragastrically, once a day. The SASP group and the test group were administered intragastrically according to the above experimental scheme, once a day. […] The animals in each group were sacrificed, and each evaluation indicator of colitis (see the section of Experiment results) was tested, and the anti-IBD pharmacodynamic activity of each test sample was evaluated comprehensively.

[4] = SASP 600 mg/kg, Example 4 at 150, 300 and 600 mg/kg

SMILES: O=C(O)c1cc(/N=N/c2ccc(S(=O)(=O)Nc3ccccn3)cc2)ccc1O [Positive drug, sulfasalazine]
- DAI composite index inhibition rate (%) [1]: 50%
- histopathological score [1]: 4.38 ± 0.42
- histopathological examination: cases with histological changes of the colon ([2]; 600 mg/kg, model group 6 cases of 15): 5 cases of 15 cases
- degree of colon histological lesions vs. model group [2, 4]: significantly reduced compared with the model group
- symptoms of sparse stools and bloody stools during the administration period [2, 4]: alleviated until disappeared
- DAI score value ([2]; d6, 600 mg/kg intragastrically once a day for 5 days, p<0.05): lower
- CMDI score value ([2]; d6, 600 mg/kg intragastrically once a day, p<0.05): lower
- anti-IBD activity / colon tissue damage (in words) ([3]; first experiment): effectively improve the colon tissue damage
- disease comprehensive index DAI score vs. model group (in words) ([3]; first experiment): reduce the disease comprehensive index DAI score of the experimental animal significantly
- DAI comprehensive index inhibition rate (%) ([3]; first experiment, 7 days of DSS modeling): 23.08^# %
- histopathological score ([3]; first experiment, 7 days of DSS modeling, lower is closer to normal): 7.25 ± 2.14
- anti-IBD activity / colon tissue damage (in words) ([3]; second experiment): slightly improve the colon tissue damage
- DAI comprehensive index inhibition rate (%) (IBD mouse model with DSS): 38.7^# %

Source: patent publication US20220162238A1, “FATTY ACID COMPOSITION AND APPLICATION THEREOF” (SICHUAN GOWELL PHARMACEUTICAL CO., LTD., priority 2019, published 2022)
